Experiment [1] addresses T1, APOL1 G2 (Homo sapiens, UniProt O14791, DEL388-389).
T1 construct: expressed in transfected cells; host or cells: HEK293 T-REx clonal lines: HEK T-REx/GCaMP6f/APOL1 G2 K6.3 in A1, HEK293/T-REx APOL1 G2/clone #2 in A2
T1 sequence (O14791 with tags, fused parts or gaps DEL388-389): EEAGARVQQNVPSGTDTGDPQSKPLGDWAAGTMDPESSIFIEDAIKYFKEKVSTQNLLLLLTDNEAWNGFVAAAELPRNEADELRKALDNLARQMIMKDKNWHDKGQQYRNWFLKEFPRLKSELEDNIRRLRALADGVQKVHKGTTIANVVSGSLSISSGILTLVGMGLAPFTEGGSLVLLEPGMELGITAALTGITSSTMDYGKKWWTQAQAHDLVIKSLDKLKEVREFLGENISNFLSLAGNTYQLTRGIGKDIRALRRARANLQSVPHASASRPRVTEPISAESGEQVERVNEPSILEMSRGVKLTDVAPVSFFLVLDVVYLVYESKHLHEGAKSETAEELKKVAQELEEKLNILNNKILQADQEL
In words: APOL1 calcium transport inhibition assay (GCaMP6f calcium influx, FLIPR) in HEK T-REx/GCaMP6f/APOL1 G2 K6.3 cells. As to conditions: inhibition of APOL1-mediated calcium influx; geometric mean of at least 2 assay runs, † = single assay run (technical duplicate). In kind it is cell-based. The method, then:
A HEK293 clonal cell line was generated to stably express GCaMP6f, a genetically encoded calcium indicator, and inducibly express APOL1 G2 (HEK T-REx/GCaMP6f/APOL1 G2 K6.3). Cells were maintained in the following standard complete medium: DMEM with 4.5 g/L glucose and sodium pyruvate (BioWhittaker, Lonza, BE12-614F), supplemented with 10% FBS Performance Plus (Gibco, 16000044), 1% penicillin-streptomycin (BioWhittaker, DE17-602E), 2 mM ultraglutamine-1 (BioWhittaker cat. BE 17-605/U1), 50 μg/mL Zeocin (InvivoGen, ant-zn), 2.5 μg/mL Blasticidin (InvivoGen, ant-bl-5), and 25 μg/mL Hygromycin (InvivoGen, ant-hg). Standard propagation conditions consisted of plating 9×10^6, 4×10^6, 2×10^6 cells in a T225 flasks to be processed after 2, 3, or 4 days, respectively.
A source plate was generated containing 20 serially diluted compounds in DMSO (duplicate 8-point dose response). Next, 0.8 μL of compounds were transferred from the source plate to a destination plate prefilled with 79.2 μL of Ca^2+ free Tyrode's buffer (130 mM NaCl, 5 mM KCl, 1 mM MgCl2, 5 mM NaHCO3, 20 mM HEPES at pH 7.4). The destination plate was placed on a plate shaker (5 seconds at 2000 rpm) to mix. […] All transfer and mixing steps were conducted with an CyBi®-Well dispenser.
Cells were split by gently washing with DPBS (Euroclone, ECB4004L), followed by a 5-minute incubation (humidified, 37° C. with 5% CO2) with trypsin-EDTA solution (Euroclone, ECB3052D). Detached cells were diluted with standard complete medium without selective agents, counted, and plated in a 384 MTP microplate (GR4332CPL, Twin Helix) (10,000 cells/well in 25 μl/well) using a MATRIX WellMate dispenser. Plates were placed into a humidified incubator (37° C. with 5% CO2) overnight. The following day, 20 μL of doxycycline (Sigma, D9891) at 20 ng/mL in standard complete medium was added to cells with a CyBi @Drop dispenser to induce APOL1 G2 expression. After a 6-hour incubation (humidified, 37° C. with 5% CO2), cells were washed 3 times with Ca^2+ free Tyrode's Buffer (130 mM NaCl, 5 mM KCl, 1 mM MgCl2, 5 mM NaHCO3, 20 mM HEPES at pH 7.4) using a BIOTEK Microplate washer, such that 10 μL of buffer remained in each well after the final wash. Assay plates were then stored at room temperature for 10 minutes. Next, 10 μL of diluted compounds were transferred to the assay plate from the 2× compound plate using a CyBi®-Well dispenser. Compound incubation was then carried out at room temperature for 10 minutes. The assay plate was transferred to the […] and 20 μL of 10 mM Ca^2+ (final concentration=5 mM) Tyrode's buffer was injected.
Table B1 below summarizes the data from this experiment. Unless otherwise specified, AC50 and values are reported as the geometric mean of at least 2 assay runs on separate days. Each run represents the average of a technical replicate, where each compound was assayed twice in the same plate. A superscript † symbol indicates a value from the average of a technical replicate from a single assay run, where each compound was assayed twice in the same plate.
The AC50 values in Table B1 below reflect the compound's ability to prevent calcium influx by inhibiting APOL1. […] Compounds in Table B1 are referred to by the corresponding Compound Number in Table 1, which is also referred to in the synthetic examples. When one or more of the numbered compounds are identified by stereochemistry (for example, (R)- or (S)—), the specific stereoisomer for which data is provided in Table B1 may be identified by the elution order of such compound as described in the synthetic examples. To illustrate, Compound 2 is the first-eluting enantiomer of step 4 of Example 1 and Compound 3 is the second-eluting enantiomer of step 4 of Example 1. Further, by way of illustration, Compound 27 is the first-eluting enantiomeric mixture in step 4 of Example 7 and Compound 28 is the second-eluting enantiomeric mixture in step 4 of Example 7. […]

Experiment [2] has as its target T1, APOL1 G2. In words: Rescue of HEK293 cell death caused by overexpression of APOL1 (CellTiter-Glo luminescence), HEK293/T-REx APOL1 G2/clone #2. In kind it is cell-based. As to conditions: reversal of cell death caused by overexpression of APOL1; geometric mean of at least 2 assay runs, † = single assay run (technical duplicate). On the procedure: A HEK293 clonal cell line overexpressing APOL1 G2 (HEK293/T-REx APOL1 G2/clone #2) was maintained in 1×DMEM-GlutaMax (Gibco, 10569-010) media with 10% tetracycline-free FBS (Takara Bio USA, 631101), 5 μg/mL Blasticidin (Gibco, A1113903), and 100 μg/mL Zeocin (Invitrogen, R25001) in T75 flasks. In preparation for the assay, this media was aspirated and 2 mL of prewarmed TrypLE Express (Gibco, 12605-010) was added to a flask to detach cells. The flask was then incubated (humidified, 37° C. with 5% CO2) for 3-5 minutes. Afterwards, 8 mL of prewarmed cell assay media (lx DMEM-GlutaMax media with 10% tetracycline-free FBS) was added to the trypsinized cells. The suspension was gently mixed, and cells were counted using a Countess Cell Counting Chamber (Invitrogen). The suspension was diluted using cell assay media to generate a working stock solution (166,667 cells/mL). Using a MultiDrop Combi (Thermo Electron Corp), 30 μL (final cell density=5,000 cells/well) of the working stock solution was dispensed into each well of white 384-well assay ready plates (Nunc™, 164610) containing 6 ng/mL doxycycline, to induce APOL1 expression, and compound. All compounds were plated in a duplicate 8-point dilution series that consisted of 3-fold stepwise dilutions (0.5% DMSO final). Assay plates were incubated (humidified, 37° C. with 5% CO2) for 17 hours. After the incubation, the plates were equilibrated at room temperature for 1 hour. Next, 15 μl of CellTiter-Glo® reagent (Promega, G7570) was added to each well using a MultiDrop Combi. Plates were placed on an orbital shaker (500 rpm) for 5 minutes to induce cell lysis and then incubated at room temperature for 10 minutes. Luminescence was measured on an Envision plate reader. Collaborative Drug Discovery software was utilized for graphing data. Plots were generated using a four parameter logistic curve fit.
Table B2 below provides the results from this experiment. Unless otherwise specified, EC50 values are reported as the geometric mean of at least 2 assay runs on separate days. Each run represents the average of a technical replicate, where each compound was assayed twice in the same plate. A superscript t symbol indicates a value from the average of a technical replicate from a single assay run, where each compound was assayed twice in the same plate. Compounds in Table B2 are referred to by the corresponding Compound Number in Table 1, which is also referred to in the synthetic examples. When one or more of the numbered compounds are identified by stereochemistry (for example, (R)- or (S)—), the specific stereoisomer for which data is provided in Table B2 may be identified by the elution order of such compound as described in the synthetic examples. To illustrate, Compound 2 is the first-eluting enantiomer of step 4 of Example 1 and Compound 3 is the second-eluting enantiomer of step 4 of Example 1. Further, by way of illustration, Compound 27 is the first-eluting enantiomeric mixture in step 4 of Example 7 and Compound 28 is the second-eluting enantiomeric mixture in step 4 of Example 7. Then, Compound 27 is separated into Compound 29 (the first-eluting enantiomer) and Compound 30 (the second-eluting enantiomer) in Example 8, and Compound 28 is separated into Compound 31 (the first-eluting enantiomer) and Compound 32 (the second-eluting enantiomer) in Example 8. Absolute stereochemistry of such compounds may be identified by methods known in the art.
Rescue EC50 values reported in Table B2 below represent the half-maximal effective concentration for reversal of cell death caused by overexpression of APOL1.
(ATP-based viability assays read luminescence as a measure of living cells.)

Broadly, the AC50 is the concentration giving half of the maximal activity seen. The term EC50 denotes the midpoint of the concentration-response curve. For the compound `CN=S(C)(=O)c1ccc(OC[C@H]2C[C@@H](C)N(CCc3cccc(C#N)c3)C2)cc1` (single isomer, unassigned) [Compound 158, 3-{2-[(2R,4S)-2-methyl-4-({4-[(R or S)methyl(methyli-mino)oxo-λ^6-sulfanyl]phenoxy}methyl)pyrrolidin-1-yl]ethyl}benzonitrile], the AC50 at APOL1 G2 [1] was 352 nM. Besides, the EC50 on APOL1 G2 [2] worked out at 39 nM.

For `CS(=O)(=O)c1ccc(OCC2CCCCN(CCc3cccc(Cl)c3)C2)cc1` (single isomer, unassigned) [Compound 3, (S) or (R)-1-(3-chlorophenethyl)-3-((4-(methylsulfonyl)phenoxy)methyl)azepane], the AC50 on APOL1 G2 [1] worked out at 205 nM. Also, at APOL1 G2 [2], the EC50 was 295 nM.

As to `CS(=O)(=O)c1ccc(OC[C@H]2CCCN(CCc3cccc(Cl)c3)C2)cc1` [Compound 16, (S)-1-(3-chlorophenethyl)-3-((4-(methylsulfonyl)phenoxy)methyl)piperidine], the AC50 at APOL1 G2 [1] was 231 nM. In addition, the EC50 on APOL1 G2 [2] is 329 nM.

Turning to `CS(=O)(=O)c1ccc(OCC2CN(CCc3cccc(Cl)c3)CCC2O)cc1` (single isomer, unassigned) [Compound 29, (3S,4R) or (3R,4R) or (3S,4S) or (3R,4S)-1-(3-chlorophenethyl)-3-((4-(methylsulfonyl)phenoxy)methyl)piperidin-4-ol], at APOL1 G2 [1], the AC50 came out at 1980 nM. Further, the EC50 on APOL1 G2 [2] was > 12200 nM.

Consider `CS(=O)(=O)c1ccc(OCC2CCCCN(CCc3cccc(Cl)c3)C2)cc1` (single isomer, unassigned) [Compound 2, (R) or (S)-1-(3-chlorophenethyl)-3-((4-(methylsulfonyl)phenoxy)methyl)azepane], for which the AC50 on APOL1 G2 [1] was 1010 nM. The EC50 on APOL1 G2 [2] came to 2960 nM.

As to `C[C@@H]1CN(CCc2cccc(Cl)c2)C[C@@H]1COc1ccc(S(C)(=O)=O)cc1` (racemic) [Compound 150, rac-cis-1-[2-(3-chlorophenyl)-ethyl]-3-[(4-methanesulfon-ylphenoxy)meth-yl]-4-methyl-pyrrolidine], on APOL1 G2 [1], the AC50 amounted to 721 nM. Further, the EC50 at APOL1 G2 [2] is 1470 nM.

Take `CC(C)(CO)S(=O)(=O)c1ccc(OC[C@@H]2CN(CCc3cc(Cl)cc(C#N)c3)CCN2)cc1` [Compound 183, 3-chloro-5-{2-[(3S)-3-{[4-(1-hydroxy-2-methylpropane-2-sulfonyl)phenoxy]methyl}pi-perazin-1-yl]ethyl}benzo-nitrile]: at APOL1 G2 [1], the AC50 turned out to be 149 nM. The EC50 on APOL1 G2 [2] worked out at 157 nM.

For the compound `C[C@@H]1C[C@H](COc2ccc(S(=O)(=O)C3CNC3)cc2)CN1CCc1cc(Cl)cc(C#N)c1` [Compound 161, 3-{2-[(2R,4S)-4-{[4-(azetidine-3-sulfonyl)phenoxy]methyl}-2-methylpyrrolidin-1-yl]ethyl}-5-chlorobenzonitrile], the AC50 on APOL1 G2 [1] was 878 nM. Moreover, the EC50 at APOL1 G2 [2] is 191 nM.

As for `C[C@]1(O)CN(CCc2cccc(Cl)c2)C[C@H]1COc1ccc(S(C)(=O)=O)cc1` (single isomer, unassigned) [Compound 210, (3S,4R or 3R,4S)-1-[2-(3-chlorophenyl)ethyl]-4-[(4-methanesulfonylphenoxy)methyl]-3-methylpyrrolidin-3-ol], the AC50 at APOL1 G2 [1] amounted to 898 nM. The EC50 on APOL1 G2 [2] was 3120 nM.

For `CN(c1ccc(NCC(O)CNCCc2cccc(Cl)c2)cc1)S(C)(=O)=O` (single isomer, unassigned) [Compound 106, (R) or (S)-N-(4-((3-((3-chlorophenethyl)a-mino)-2-hydroxypropyl)ami-no)phenyl)-N-methylmethanesulfon-amide], the AC50 at APOL1 G2 [1] came to 2790 nM. The EC50 on APOL1 G2 [2] was found to be 6240 nM.

As to `Cc1ccc(Cl)cc1CCN1CCN[C@H](COc2ccc(S(C)(=O)=O)cc2)C1` [Compound 197, (3S)-1-[2-(5-chloro-2-methylphenyl)ethyl]-3-[(4-methanesulfonylphenoxy)methyl]piperazine], the AC50 at APOL1 G2 [1] was 334 nM. In addition, the EC50 at APOL1 G2 [2] came to 369 nM.

Values taken from patent US20240316038A1, “APOL1 INHIBITORS AND METHODS OF USE” (Maze Therapeutics, Inc., priority 2021, published 2024).
